Experimental findings from patent US7524936B2, “Mitogenic oxygenase regulators” (Emory University, priority 2000, dated 2009) are described below.

The subject of test [1] is lysates of NIH 3T3 cells stably transfected with the human Nox 4 gene or human Nox 5 gene. Briefly: NADPH-dependent superoxide generation, lucigenin luminescence assay in cell lysates. It is filed as biochemical. The conditions noted are these: 30 μg cell lysate, 200 μM NADPH, 500 μM lucigenin. The method, then: In one embodiment of the present invention, NIH 3T3 cells stably transfected with the human Nox 4 gene (SEQ ID NO:1) or human Nox 5 gene (SEQ ID NO:3) are analyzed for superoxide generation using the lucigenin (Bis-N-methylacridinium luminescence assay (Sigma, St. Louis, Mo., Li et al. (1998) J. Biol. Chem. 273, 2015-2023). Cells are washed with cold HANKS' solution and homogenized on ice in HANKS' buffer containing 15% sucrose using a Dounce homogenizer. Cell lysates are frozen immediately in a dry ice/ethanol bath. For the assay, 30 μg of cell lysate is mixed with 200 μM NADPH and 500 μM lucigenin. Luminescence is monitored using a LumiCounter (Packard) at three successive one minute intervals and the highest value was used for comparison. Protein concentration is determined by the Bradford method.
Superoxide generation is monitored in lysates from some of the stably transfected cell lines and is compared with superoxide generation by the untransfected NIH 3T3 cell lysates.

Test [2] concerns Nox 4 enzyme and Nox 5 enzyme. Briefly: cell-free assay for Nox 4 / Nox 5 NADPH-oxidase activity (NADPH-dependent chemiluminescence). Type of test: biochemical, human. Conditions: MgCl2 1-5 mM; cell lysate, 200 μM NADPH, 10 μM lucigenin, 37° C. As to the method:
In an alternate and preferred embodiment of the present invention, cells that are stably transfected with Nox 4 (YA28), Nox 5 (YA28) or with empty vector (NEF2) are grown in 10 cm tissue culture plates in medium containing DMEM, 10% calf serum, 100 units/ml penicillin, 100 μg/ml streptomycin, and 1 μg/ml puromycin to approximately 80% confluency. Cells (five tissue culture plates of each cell type) are washed briefly with 5 ml phosphate buffered saline (PBS) then dissociated from the plates with PBS containing 5 mM EDTA. Cells are pelleted by centrifuging briefly at 1000×g.
To permeabilize the cells, freeze thaw lysis is carried out and this is followed by passage of the cell material through a small bore needle. The supernatant is removed and the cells are frozen on dry ice for 15 minutes. […]
The cell lysates are assayed for protein concentration using the BioRad protein assay system. […] The reaction is initiated by adding 1.5 mM NADPH and 75 μM lucigenin to the assay mix to give a final concentration of 200 μM NADPH and 10 μM lucigenin, and the chemiluminescence is monitored immediately. […] The plate is monitored continuously for 60 minutes and the maximal relative luminescence unit (RLU) value for each sample is used for the graph. […]

On to `c1ccc2c(c1)[I+]c1ccccc1-2` [diphenylene iodonium, reference compound], for which the “luminescent signal (superoxide generation)” value (shortened to “luminescent signal”) in test [1] is given as “inhibited”. On to `[Cl-].[Cl-].[Mg+2]` [MgCl2], for which, in test [2], the “enhancement of NADPH-oxidase activity” value is “about 2 fold”.

With “superoxide dismutase [reference compound]”, the “luminescent signal” value in test [1] was “inhibited”.

B1: p67phox: recombinant human cytosolic factor of the phagocyte respiratory-burst oxidase (protein, UniProt P19878 1-526, looked up)
Neutrophil cytosol factor 2: MSLVEAISLWNEGVLAADKKDWKGALDAFSAVQDPHSRICFNIGCMYTILKNMTEAEKAFTRSINRDKHLAVAYFQRGMLYYQTEKYDLAIKDLKEALIQLRGNQLIDYKILGLQFKLFACEVLYNIAFMYAKKEEWKKAEEQLALATSMKSEPRHSKIDKAMECVWKQKLYEPVVIPVGKLFRPNERQVAQLAKKDYLGKATVVASVVDQDSFSGFAPLQPQAAEPPPRPKTPEIFRALEGEAHRVLFGFVPETKEELQVMPGNIVFVLKKGNDNWATVMFNGQKGLVPCNYLEPVELRIHPQQQPQEESSPQSDIPAPPSSKAPGRPQLSPGQKQKEEPKEVKLSVPMPYTLKVHYKYTVVMKTQPGLPYSQVRDMVSKKLELRLEHTKLSYRPRDSNELVPLSEDSMKDAWGQVKNYCLTLWCENTVGDQGFPDEPKESEKADANNQTTEPQLKKGSQVEALFSYEATQPEDLEFQEGDIILVLSKVNEEWLEGECKGKVGIFPKVFVEDCATTDLESTRREV
Regarding B1, the “luminescent signal” value in test [1] was “unaffected”.

B2: p47phox: recombinant human cytosolic factor of the phagocyte respiratory-burst oxidase (protein, UniProt P14598 1-390, looked up)
Neutrophil cytosol factor 1: MGDTFIRHIALLGFEKRFVPSQHYVYMFLVKWQDLSEKVVYRRFTEIYEFHKTLKEMFPIEAGAINPENRIIPHLPAPKWFDGQRAAENRQGTLTEYCSTLMSLPTKISRCPHLLDFFKVRPDDLKLPTDNQTKKPETYLMPKDGKSTATDITGPIILQTYRAIANYEKTSGSEMALSTGDVVEVVEKSESGWWFCQMKAKRGWIPASFLEPLDSPDETEDPEPNYAGEPYVAIKAYTAVEGDEVSLLEGEAVEVIHKLLDGWWVIRKDDVTGYFPSMYLQKSGQDVSQAQRQIKRGAPPRRSSIRNAHSIHQRSRKRLSQDAYRRNSVRFLQQRRRQARPGPQSPGSPLEEERQTQRSKPQPAVPPRPSADLILNRCSESTKRKLASAV
For the molecule B2, the “luminescent signal” value in test [1] was “unaffected”.
